The structures appear in SMILES notation. ≈ marks a conversion by molar mass, not a printed value.

This assay deals with P. vulgaris 49. Briefly: In vitro antibacterial activity, two-fold agar-plate dilution method (MIC). The class given is cell-based. Particulars: Proteus vulgaris, HI-agar, 10^6 viable cells per ml, 37° C. for 20 hours, read-out: MIC (minimal inhibitory concentration). As for the experimental part: Now in order to show the utility of the object compounds [I], the test data on MIC (minimal inhibitory concentration) of representative compounds [I] of this invention are shown in the following.
In vitro antibacterial activity was determined by the two-fold agar-plate dilution method as described below.
One loopful of an overnight culture of each test strain in Trypticase-soy broth (10^6 viable cells per ml) was streaked on heart infusion agar (HI-agar) containing graded concentrations of representative test compound, and the minimal inhibitory concentration (MIC) was expressed in terms of μg/ml after incubation at 37° C. for 20 hours.
For `Cn1c(N)cc[n+]1CC1=C(C(=O)[O-])N2C(=O)C(NC(=O)C(=NOCC(=O)O)c3nsc(N)n3)C2SC1` (stereo not drawn) [Compound A, 7β-[2-(5-Amino-1,2,4-thiadiazol-3-yl)-2-carboxymethoxyiminoacetamido]-3-(3-amino-2-methyl-1-pyrazolio)methyl-3-cephem-4-carboxylate (syn isomer)], the MIC turned out to be 0.2 µg/mL (≈ 0.372 µM).
With `Cn1c(NC=O)cc[n+]1CC1=C(C(=O)[O-])N2C(=O)C(NC(=O)C(=NOCC(=O)O)c3nsc(N)n3)C2SC1` (stereo not drawn) [Compound B, 7β-[2-(5-Amino-1,2,4-thiadiazol-3-yl)-2-carboxymethoxyiminoacetamide]-3-(3-formamido-2-methyl-1-pyrazolio)methyl-3-cephem-4-carboxylate (syn isomer)], the MIC stood at 0.2 µg/mL (≈ 0.354 µM).
Turning to `Cn1c(N)cc[n+]1CC1=C(C(=O)[O-])N2C(=O)C(NC(=O)C(=NOC(C)(C)C(=O)O)c3nsc(N)n3)C2SC1` (stereo not drawn) [Compound C, 7β-[2-(5-Amino-1,2,4-thiadiazol-3-yl)-2-(1-carboxyl-1-methylethoxyimino)acetamido]-3-(3-amino-2-methyl-1-pyrazolio)methyl-3-cephem-4-carboxylate(syn isomer)], the MIC came to 0.1 µg/mL (≈ 0.177 µM).

The record behind these values is patent US5108997A, “Cephem compounds” (Fujisawa Pharmaceuticals Co., Ltd., priority 1986, dated 1992).
